# Results from publication PMC2994747, “Molecular Characterization of c-Abl/c-Src Kinase Inhibitors Targeted against Murine Tumour Progenitor Cells that Express Stem Cell Markers” (PLoS ONE, 2010).
# Legend:
# BetaD5 [1] = assay: Western blot, semi-quantitative protein expression; assay type: cell-based, mouse
# Method: (§1) For the Western Blot analysis, cells were rinsed and lysed as previously described. An amount of 25 µg protein was used for SDS-PAGE. Antibodies for c-Abl (sc-131), Actin (sc-1616), Cdc2-p34 (sc-8395), EPS15 (sc-1840), FAK (sc-558), c-Fos (sc-52), p38 (sc-7972), p53 (sc-6243) and STAT5 (sc-835x) were obtained from Santa Cruz (Santa Cruz Biotechnology, Heidelberg, Germany), while c-Src (2109) and phospho-Src Y416 (2101) were purchased from Cell Signaling (Cell Signaling Technology, Frankfurt a. M., Germany). The EGFR (06-847), phospho-EGFR Y992 (07-821) and phospho-EGFR Y1045 (04-284) stem from Upstate (Upstate, Schwalbach, Germany) and the hnRNP-K (A300-676A) from Bethyl Labs (Bethyl Laboratories, Montgomery, Texas, USA). Finally p73 (IMG-246) was supplied by Imgenex (Imgenex, Hamburg, Germany). Depending on the primary antibody the secondary antibodies were either horseradish peroxidase-conjugated anti-mouse (AP 160P), anti-rabbit (AP 132P) or anti-sheep (AP 147P) (Chemicon, Schwalbach, Germany).
# (§2) Semi-quantitative analysis were carried out with Kodak 1D Image Analysis Software in reference to the vehicle treated control cells (see supplementary table S7).
# GammaD12 [2] = assay: Western blot, semi-quantitative protein expression; assay type: cell-based, mouse
# Method: as §1, §2
# GammaA3 [3] = assay: Western blot, semi-quantitative protein expression; assay type: cell-based, mouse
# Method: as §1, §2
# A2C12 = assay: Western blot, semi-quantitative protein expression; assay type: cell-based, mouse
# Method: as §1, §2
# A549 = assay: Western blot, semi-quantitative protein expression; assay type: cell-based, human
# Method: as §1, §2
# CaCo2 = assay: Western blot, semi-quantitative protein expression; assay type: cell-based, human
# Method: as §1, §2
# [4] = test system: human and murine cell lines; assay: Western blot, statements over human and murine cell lines; assay type: cell-based; settings: IC50 concentration, 96 h
# Method: as §1, §2
# BetaD5 [5] = assay: Cell cycle analysis by flow cytometry; assay type: cell-based, mouse; settings: IC50 concentration, 96 h
# Procedure, shortened: (§3)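 Cells were harvested with trypsin, washed in PBS and resuspended in kit buffer, then centrifuged and taken up in solution A for 10 min at room temperature. Solution B was added, then solution C, with incubation at 4°C in the dark before flow cytometric DNA-content analysis.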
# GammaD12 [6] = assay: Cell cycle analysis by flow cytometry; assay type: cell-based, mouse; settings: IC50 concentration, 96 h
# Procedure, shortened: as §3
# GammaA3 [7] = assay: Cell cycle analysis by flow cytometry; assay type: cell-based, mouse; settings: IC50 concentration, 96 h
# Procedure, shortened: as §3
structure (smiles),measurement,setting,value
CSc1nc(NCCc2ccc(Cl)cc2)c2cnn(CC(Cl)c3ccccc3)c2n1 (centres unmarked) [Si57],Actin protein expression,BetaD5 [1],98
same,EGFR Y992-p protein expression,BetaD5 [1],116
same,EGFR Y1045-p protein expression,BetaD5 [1],65
same,EGFR protein expression,BetaD5 [1],61
same,EPS15 protein expression,BetaD5 [1],781
same,FAK protein expression,BetaD5 [1],98
same,STAT5 protein expression,BetaD5 [1],192
same,c-Abl protein expression,BetaD5 [1],89
same,c-Fos protein expression,BetaD5 [1],58
same,c-Src Y416-p protein expression,BetaD5 [1],19
same,c-Src protein expression,BetaD5 [1],153
same,hnRNP-K protein expression,BetaD5 [1],126
same,p38 protein expression,BetaD5 [1],76
same,p53 protein expression,BetaD5 [1],248
same,Actin protein expression,GammaD12 [2],106
same,EGFR Y992-p protein expression,GammaD12 [2],62
same,EGFR Y1045-p protein expression,GammaD12 [2],96
same,EGFR protein expression,GammaD12 [2],89
same,EPS15 protein expression,GammaD12 [2],135
same,FAK protein expression,GammaD12 [2],106
same,STAT5 protein expression,GammaD12 [2],110
same,c-Abl protein expression,GammaD12 [2],212
same,c-Fos protein expression,GammaD12 [2],70
same,c-Src Y416-p protein expression,GammaD12 [2],90
same,c-Src protein expression,GammaD12 [2],103
same,hnRNP-K protein expression,GammaD12 [2],100
same,p38 protein expression,GammaD12 [2],29
same,p53 protein expression,GammaD12 [2],58
same,Actin protein expression,GammaA3 [3],105
same,EGFR Y992-p protein expression,GammaA3 [3],90
same,EGFR Y1045-p protein expression,GammaA3 [3],15
same,EGFR protein expression,GammaA3 [3],39
same,EPS15 protein expression,GammaA3 [3],102
same,FAK protein expression,GammaA3 [3],101
same,STAT5 protein expression,GammaA3 [3],93
same,c-Abl protein expression,GammaA3 [3],62
same,c-Fos protein expression,GammaA3 [3],79
same,c-Src Y416-p protein expression,GammaA3 [3],256
same,c-Src protein expression,GammaA3 [3],104
same,hnRNP-K protein expression,GammaA3 [3],93
same,p38 protein expression,GammaA3 [3],38
same,p53 protein expression,GammaA3 [3],54
same,Actin protein expression,A2C12,97
same,EGFR Y992-p protein expression,A2C12,117
same,EGFR Y1045-p protein expression,A2C12,29
same,EGFR protein expression,A2C12,66
same,EPS15 protein expression,A2C12,89
same,FAK protein expression,A2C12,47
same,STAT5 protein expression,A2C12,104
same,c-Abl protein expression,A2C12,49
same,c-Fos protein expression,A2C12,82
same,c-Src protein expression,A2C12,92
same,hnRNP-K protein expression,A2C12,104
same,p38 protein expression,A2C12,59
same,p53 protein expression,A2C12,60
same,p73 protein expression,A2C12,40
same,Actin protein expression,A549,92
same,Cdc2-p34 protein expression,A549,55
same,EGFR Y992-p protein expression,A549,58
same,EGFR Y1045-p protein expression,A549,6.66
same,EGFR protein expression,A549,9
same,EPS15 protein expression,A549,70
same,FAK protein expression,A549,154
same,STAT5 protein expression,A549,34
same,c-Abl protein expression,A549,43
same,c-Fos protein expression,A549,49
same,c-Src Y416-p protein expression,A549,65
same,c-Src protein expression,A549,100
same,hnRNP-K protein expression,A549,83
same,p38 protein expression,A549,27
same,p53 protein expression,A549,33
same,p73 protein expression,A549,24
same,Actin protein expression,CaCo2,131
same,Cdc2-p34 protein expression,CaCo2,119
same,EGFR Y992-p protein expression,CaCo2,163
same,EGFR Y1045-p protein expression,CaCo2,259
same,EGFR protein expression,CaCo2,37
same,EPS15 protein expression,CaCo2,122
same,FAK protein expression,CaCo2,111
same,STAT5 protein expression,CaCo2,123
same,c-Abl protein expression,CaCo2,217
same,c-Fos protein expression,CaCo2,129
same,c-Src Y416-p protein expression,CaCo2,155
same,c-Src protein expression,CaCo2,106
same,hnRNP-K protein expression,CaCo2,98
same,p38 protein expression,CaCo2,84
same,p53 protein expression,CaCo2,70
same,p73 protein expression,CaCo2,78
same,hnRNP-K protein level,[4],remained equal
same,Cells in G1 phase,BetaD5 [5],52.5%
same,Cells in G2 phase,BetaD5 [5],32.3%
same,Cells in S phase,BetaD5 [5],15.4%
same,Cells in G1 phase,GammaD12 [6],33%
same,Cells in G2 phase,GammaD12 [6],6%
same,Cells in S phase,GammaD12 [6],61.1%
same,Cells in G1 phase,GammaA3 [7],59.6%
same,Cells in G2 phase,GammaA3 [7],18%
same,Cells in S phase,GammaA3 [7],22.4%
Clc1cccc(Nc2nc(SC3CCCC3)nc3c2cnn3CC(Cl)c2ccccc2)c1 (centres unmarked) [Si135],Actin protein expression,BetaD5 [1],92
same,EGFR Y992-p protein expression,BetaD5 [1],68
same,EGFR Y1045-p protein expression,BetaD5 [1],148
same,EGFR protein expression,BetaD5 [1],116
same,EPS15 protein expression,BetaD5 [1],759
same,FAK protein expression,BetaD5 [1],114
same,STAT5 protein expression,BetaD5 [1],163
same,c-Abl protein expression,BetaD5 [1],101
same,c-Fos protein expression,BetaD5 [1],98
same,c-Src Y416-p protein expression,BetaD5 [1],20
same,c-Src protein expression,BetaD5 [1],135
same,hnRNP-K protein expression,BetaD5 [1],115
same,p38 protein expression,BetaD5 [1],56
same,p53 protein expression,BetaD5 [1],119
same,Actin protein expression,GammaD12 [2],110
same,EGFR Y992-p protein expression,GammaD12 [2],181
same,EGFR Y1045-p protein expression,GammaD12 [2],132
same,EGFR protein expression,GammaD12 [2],95
same,EPS15 protein expression,GammaD12 [2],149
same,FAK protein expression,GammaD12 [2],117
same,STAT5 protein expression,GammaD12 [2],118
same,c-Abl protein expression,GammaD12 [2],152
same,c-Fos protein expression,GammaD12 [2],103
same,c-Src Y416-p protein expression,GammaD12 [2],140
same,c-Src protein expression,GammaD12 [2],89
same,hnRNP-K protein expression,GammaD12 [2],75
same,p38 protein expression,GammaD12 [2],18
same,p53 protein expression,GammaD12 [2],108
same,Actin protein expression,GammaA3 [3],101
same,EGFR Y992-p protein expression,GammaA3 [3],70
same,EGFR Y1045-p protein expression,GammaA3 [3],31
same,EGFR protein expression,GammaA3 [3],25
same,EPS15 protein expression,GammaA3 [3],102
same,FAK protein expression,GammaA3 [3],104
same,STAT5 protein expression,GammaA3 [3],80
same,c-Abl protein expression,GammaA3 [3],65
same,c-Fos protein expression,GammaA3 [3],112
same,c-Src Y416-p protein expression,GammaA3 [3],216
same,c-Src protein expression,GammaA3 [3],107
same,hnRNP-K protein expression,GammaA3 [3],90
same,p38 protein expression,GammaA3 [3],48
same,p53 protein expression,GammaA3 [3],78
same,Actin protein expression,A2C12,88
same,EGFR Y992-p protein expression,A2C12,79
same,EGFR Y1045-p protein expression,A2C12,69
same,EGFR protein expression,A2C12,30
same,EPS15 protein expression,A2C12,83
same,FAK protein expression,A2C12,71
same,STAT5 protein expression,A2C12,95
same,c-Abl protein expression,A2C12,64
same,c-Fos protein expression,A2C12,52
same,c-Src protein expression,A2C12,95
same,hnRNP-K protein expression,A2C12,87
same,p38 protein expression,A2C12,33
same,p53 protein expression,A2C12,58
same,p73 protein expression,A2C12,43
same,Actin protein expression,A549,98
same,Cdc2-p34 protein expression,A549,82
same,EGFR Y992-p protein expression,A549,128
same,EGFR Y1045-p protein expression,A549,23
same,EGFR protein expression,A549,45
same,EPS15 protein expression,A549,56
same,FAK protein expression,A549,130
same,STAT5 protein expression,A549,80
same,c-Abl protein expression,A549,88
same,c-Fos protein expression,A549,50
same,c-Src Y416-p protein expression,A549,110
same,c-Src protein expression,A549,94
same,hnRNP-K protein expression,A549,83
same,p38 protein expression,A549,62
same,p53 protein expression,A549,59
same,p73 protein expression,A549,55
same,Actin protein expression,CaCo2,120
same,Cdc2-p34 protein expression,CaCo2,74
same,EGFR Y992-p protein expression,CaCo2,113
same,EGFR Y1045-p protein expression,CaCo2,104
same,EGFR protein expression,CaCo2,44
same,EPS15 protein expression,CaCo2,79
same,FAK protein expression,CaCo2,82
same,STAT5 protein expression,CaCo2,120
same,c-Abl protein expression,CaCo2,155
same,c-Fos protein expression,CaCo2,164
same,c-Src Y416-p protein expression,CaCo2,129
same,c-Src protein expression,CaCo2,125
same,hnRNP-K protein expression,CaCo2,90
same,p38 protein expression,CaCo2,64
same,p53 protein expression,CaCo2,69
same,p73 protein expression,CaCo2,66
same,hnRNP-K protein level,[4],remained equal
same,Cells in G1 phase,BetaD5 [5],73%
same,Cells in G2 phase,BetaD5 [5],22.3%
same,Cells in S phase,BetaD5 [5],4.7%
same,Cells in G1 phase,GammaD12 [6],35.5%
same,Cells in G2 phase,GammaD12 [6],12.5%
same,Cells in S phase,GammaD12 [6],51.9%
same,Cells in G1 phase,GammaA3 [7],up to 75%
same,Cells in G2 phase,GammaA3 [7],14.9%
same,Cells in S phase,GammaA3 [7],10%
same,Cells in G1 phase,GammaA3 [7]; listed as Si 135,75.1%
